Results: patent publication US20150087722A1, “TREATMENT FOR BREAST TUMOR CELL METASTASIS” (China Medical University, priority 2012, published 2015)

Legend:
[1] = tested on: ROS content in breast tumor cells MDA-MB-231; assay: intracellular reactive oxygen species method; format: cell-based, human
Protocol: In FIG. 12, the reactive oxygen species method was used to detect the effect of increased treatment doses of the compound II on the ROS content in breast tumor cells, and a photograph was taken at a 200× field under the fluorescence microscope. In the intracellular reactive oxygen species method, the cells were planted in a 24-well plate (5×10^4 cells/well). The next day after the cells were adhered to the wall, the cells were cultured in a serum free DMEM culture medium at an atmosphere of 5% CO2 in an incubator at 37° C. for 12 h. The compound II was added into the 1% FBS-DMEM culture medium, and the cells were cultured in the culture medium for 2 h. The cells were then washed with PBS. 100 ng/mL LPS was added to react with the cells, and then the cells were washed with PBS. Culture medium including 10 μM fluorescent probe (DCFH2-DA) was supplied and then the cells were cultured for 30 min at 37° C. The cells were washed with PBS for three times so as to remove the residual stain. Finally the cells were lysed using 0.25% Tritox-100. The absorbance was measured by a fluorescence spectrometer, where the excitation wavelength was set as 485±20 nm, and the […] was set as 530±25 nm.

[2] = tested on: Normal Rat Macrophage Cell (RAW264.7 cell strain); assay: MTT cell viability assay; format: cell-based
[3] = tested on: E-cadherin and Vimentin in MDA-MB-231 cells; assay: E-cadherin Luciferase activity / immunocytochemical analysis (ICC); format: cell-based, human
Excerpt: Thus, taking the MDA-MB-231 cell as an example, the expression results of E-cadherin and Vimentin in the cell were observed. FIG. 6 is a quantitative analysis diagram showing Luciferase activity of E-cadherin obtained from a primary antibody E-cadherin by an immunocytochemical analysis (ICC). In FIG. 6, a transformed cell strain only including an empty vector (pC3.1) is the negative control, and a cell strain including no compound II is the background control, the translational activity is defined as 100%. ICC includes embedding the tumor cells in paraffin and slicing the embedded cells into slides having a thickness of […] by a slicer, deparaffinizing, rehydrating and renaturating, picking the slide out and putting the slide into the primary antibody E-cadherin; reacting for 1.5 h and washing the slide for three times with PBS, reacting with the secondary antibody for 30 min and washing the slide for three times with PBS, staining the slide with 3′,3′-diaminobenzendine (DAB) at a ratio of 1:30, and the slide was mounted with Entellanz.

[4] = tested on: EMT-related proteins in breast tumor cells MDA-MB-231; assay: western blotting of EMT-related proteins; format: cell-based, human; settings: MDA-MB-231, 0.5, 1 and 2 μM, 24 h, with dose increasing
Protocol: FIG. 2A illustrates the expression results of EMT-related proteins in breast tumor cells MDA-MB-231 after the breast tumor cells MDA-MB-231 have been respectively cultured under compound II having concentrations of 0, 0.5, 1 and 2 μM for 24 h; and FIG. 2B illustrates the expression results of EMT-related proteins in breast tumor cells MCF-7 after the breast tumor cells MCF-7 have been respectively cultured under the compound II having concentrations of 0, 10, 15 and 20 μM for 24 h. FIG. 3A illustrates the western blotting results of EMT-related proteins in the breast tumor cells MDA-MB-468, where the breast tumor cells MDA-MB-468 are treated with the compound I having concentrations of 0, 0.5, 1 and 2 μM for 24 h, and FIG. 3B illustrates the western blotting results of EMT-related proteins in the breast tumor cells MDA-MB-435, where the breast tumor cells MDA-MB-435 are treated with the compound I having concentrations of 0, 2.5, 5 and 7.5 μM for 24 h. […] Then luminescence image equipment was used, where the PVDF was placed onto a black metal plate by a plastic pincer and the face including protein was upwards, a 1:1 mixed Chemiluminesent Substrate was added into the membrane and the exposure time depends on the fluorescence intensity of antibodies. […]

[5] = tested on: human normal breast cells MCF-10A stimulated by TNF-α/TGF-β; assay: transwell invasion assay; format: cell-based; settings: 2 μM with TNF-α/TGF-β 10 ng/ml simultaneously

For `COC1=C(OC)C(=O)C(C)=C(C)C1=O` [compound II], the “increasing trend of reactive oxygen species” value ([1]; MDA-MB-231, with antioxidant NAC added at the same time) was “not obvious”, the “content of reactive oxygen species” value ([1]; MDA-MB-231, with increasing treatment doses) was “increased accordingly” and the IC50 [2] was 25.5 µM. The expression of vimentin ([3]; MDA-MB-231) was “inhibit expression of vimentin”, the “expression amount of E-cadherin in the cytoplasm” value ([3]; MDA-MB-231, with dose increasing, FIG. 6) was “increased” and the “expression amount of E-cadherin, occludin and ICAM” value [4] was “increased”. For the same compound, the “expression amount of proteins facilitating tumor cell proliferation (Twist, Snail, vimentin, β-catenin, VEGF)” value [4] was “decreased”.

With `COC1=C(OC)C(=O)C(C)=CC1=O` [compound I] the “invasion of MCF-10A” value [5] was “significantly decreased”.
